The numbers were not newly measured in US6977269B1, “Method of improving animal tissue quality” (Pioneer Hi-Bred International, Inc, priority 2001, dated 2005), which cites them from elsewhere.

Where two headings read alike, the source gives them in different places.

The conditions of data set [1]: compared with gamma-tocopherol; cited from earlier work.
On the set-up of data set [2]: unit not given here. The settings on record: cited from earlier work.

`Cc1c(O)cc2c(c1C)OC(C)(C(=O)O)CC2` (centres unmarked) [6-hydroxy-2,7,8-trimethylchroman-2-carboxylic acid]: in data set [1], the water solubility entry is “more water soluble than gamma-tocopherol”.

Turning to vitamin E, the tissue level in data set [2] (400 IU/KG per steer daily for 180 days) was 3.3; in data set [2] (500 IU/KG per steer daily for 126 days), 2.5; in data set [2] (1300 IU/KG per steer daily for 44 days), 3.3; in data set [2] (2000 IU/KG per steer daily for 100 days), 6.1.
